For orientation: IC50 means the concentration at which inhibition is half-maximal. High values mean weaker potency, low ones greater potency. One may read the Ki as a dissociation constant, usually derived from enzyme kinetics or from competition with a known ligand. A low value points to tighter binding.

The target in this assay is glutaminyl cyclase (QC) (Homo sapiens, UniProt Q16769). As to the kind of experiment: QC inhibitor assay (fluorometric / spectrophotometric QC activity assays). The settings on record: QC inhibition, 30° C.; for Ki: progress curves fitted to the general equation for competitive inhibition. The class given is biochemical. How it is done:
All measurements were performed with a BioAssay Reader HTS-7000Plus for microplates (Perkin Elmer) at 30° C. QC activity was evaluated fluorometrically using H-Gln-βNA. The samples consisted of 0.2 mM fluorogenic substrate, 0.25 U pyroglutamyl aminopeptidase (Unizyme, Hørsholm, Denmark) in 0.2 M Tris/HCl, pH 8.0 containing 20 mM EDTA and an appropriately diluted aliquot of QC in a final volume of 250 μl. Excitation/emission wavelengths were 320/410 nm. The assay reactions were initiated by addition of glutaminyl cyclase. QC activity was determined from a standard curve of β-naphthylamine under assay conditions. One unit is defined as the amount of QC catalyzing the formation of 1 μmol pGlu-βNA from H-Gln-βNA per minute under the described conditions.
In a second fluorometric assay, QC was activity determined using H-Gln-AMC as substrate. Reactions were carried out at 30° C. utilizing the NOVOStar reader for microplates (BMG labtechnologies). The samples consisted of varying concentrations of the fluorogenic substrate, 0.1 U pyroglutamyl aminopeptidase (Qiagen) in 0.05 M Tris/HCl, pH 8.0 containing 5 mM EDTA and an appropriately diluted aliquot of QC in a final volume of 250 μl. Excitation/emission wavelengths were 380/460 nm. The assay reactions were initiated by addition of glutaminyl cyclase. QC activity was determined from a standard curve of 7-amino-4-methylcoumarin under assay conditions. The kinetic data were evaluated using GraFit software.
This novel assay was used to determine the kinetic parameters for most of the QC substrates. QC activity was analyzed spectrophotometrically using a continuous method, that was derived by adapting a previous discontinuous assay (Bateman, R. C. J. 1989 J Neurosci Methods 30, 23-28) utilizing glutamate dehydrogenase as auxiliary enzyme. Samples consisted of the respective QC substrate, 0.3 mM NADH, 14 mM α-Ketoglutaric acid and 30 U/ml glutamate dehydrogenase in a final volume of 250 μl. Reactions were started by addition of QC and persued by monitoring of the decrease in absorbance at 340 nm for 8-15 min.
The initial velocities were evaluated and the enzymatic activity was determined from a standard curve of ammonia under assay conditions. All samples were measured at 30° C., using either the SPECTRAFluor Plus or the Sunrise (both from TECAN) reader for microplates. Kinetic data was evaluated using GraFit software.
For inhibitor testing, the sample composition was the same as described above, except of the putative inhibitory compound added. For a rapid test of QC-inhibition, samples contained 4 mM of the respective inhibitor and a substrate concentration at 1 KM. For detailed investigations of the inhibition and determination of Ki-values, influence of the inhibitor on the auxiliary enzymes was investigated first. In every case, there was no influence on either enzyme detected, thus enabling the reliable determination of the QC inhibition. The inhibitory constant was evaluated by fitting the set of progress curves to the general equation for competitive inhibition using GraFit software.

Chain of glutaminyl cyclase (QC) (Q16769 29-361): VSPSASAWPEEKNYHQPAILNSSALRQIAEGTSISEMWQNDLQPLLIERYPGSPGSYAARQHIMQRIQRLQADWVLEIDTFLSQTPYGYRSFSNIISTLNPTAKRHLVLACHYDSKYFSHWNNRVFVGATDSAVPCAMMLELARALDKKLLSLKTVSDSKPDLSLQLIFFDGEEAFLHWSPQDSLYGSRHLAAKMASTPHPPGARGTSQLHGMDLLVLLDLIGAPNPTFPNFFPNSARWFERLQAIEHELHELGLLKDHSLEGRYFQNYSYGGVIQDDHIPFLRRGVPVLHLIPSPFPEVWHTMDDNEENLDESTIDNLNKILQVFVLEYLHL

Turning to `Cc1cc(NCCCn2ccnc2)nc(-c2ccccc2)n1` [Example 1, N-(3-(1H-imidazol-1-yl)propyl)-6-methyl-2-phenylpyrimidin-4-amine], the IC50 amounted to 47.8 µM and the Ki came out at 18 µM.
In turn, `c1ccc(-c2cc(NCCCn3ccnc3)nc(-c3ccccc3)n2)cc1` [Example 2, N-(3-(1H-imidazol-1-yl)propyl)-2,6-diphenylpyrimidin-4-amin] returned an IC50 of 49.8 µM and a Ki of 3.9 µM.
The compound `Cc1nc(NCCCn2ccnc2)cc(-c2ccccc2)n1` [Example 3, N-(3-(1H-imidazol-1-yl)propyl)-2-methyl-6-phenylpyrimidin-4-amine] gave an IC50 of 28.1 µM and a Ki of 4.6 µM.
On to `Cc1cc(NCCCn2ccnc2)nc(C)n1` [Example 4, N-(3-(1H-imidazol-1-yl)propyl)-2,6-dimethylpyrimidin-4-amine], for which inhibition was half-maximal at 30.3 µM (IC50) and affinity was put at a Ki of 9.31 µM.
The corresponding values for `Cc1ccc(-c2cc(NCCCn3ccnc3)nc(C)n2)cc1` [Example 5, N-(3-(1H-imidazol-1-yl)propyl)-2-methyl-6-p-tolylpyrimidin-4-amine] are 13.3 µM and 3.52 µM.
In the case of `Cc1nc(NCCCn2ccnc2)cc(-c2cc(C(F)(F)F)cc(C(F)(F)F)c2)n1` [Example 6, N-(3-(1H-imidazol-1-yl)propyl)-6-(3,5-bis(trifluoromethyl)phenyl)-2-methyl-pyrimidin-4-amine], the IC50 stood at 14.7 µM and the Ki came out at 4.69 µM.
As for `FC(F)(F)c1cc(-c2cc(NCCCn3ccnc3)nc(-c3ccccc3)n2)cc(C(F)(F)F)c1` [Example 7, N-(3-(1H-imidazol-1-yl)propyl)-6-(3,5-bis(trifluoromethyl)phenyl)-2-phenyl-pyrimidin-4-amine], the midpoint of inhibition, the IC50, lay at 91.1 µM.
In turn, `COc1cc(-c2cc(NCCCn3ccnc3)nc(-c3ccccc3)n2)cc(OC)c1OC` [Example 8, N-(3-(1H-imidazol-1-yl)propyl)-6-(3,4,5-trimethoxyphenyl)-2-phenylpyrimidin-4-amine] returned a 50% inhibitory concentration (IC50) of 7.08 µM and a Ki of 1.16 µM.
`Cc1ccc(-c2cc(NCCCn3ccnc3)nc(-c3ccccc3)n2)cc1` [Example 9, N-(3-(1H-imidazol-1-yl)propyl)-2-phenyl-6-p-tolylpyrimidin-4-amine] registered an IC50 of 14.4 µM.
Same read-out and setting: the figure for `O=[N+]([O-])c1ccc(-c2cc(NCCCn3ccnc3)nc(-c3ccccc3)n2)cc1` [Example 10, N-(3-(1H-imidazol-1-yl)propyl)-6-(4-nitrophenyl)-2-phenylpyrimidin-4-amine] is 12.4 µM; for `COc1ccccc1-c1cc(NCCCn2ccnc2)nc(-c2ccccc2)n1` [Example 11, N-(3-(1H-imidazol-1-yl)propyl)-6-(2-methoxyphenyl)-2-phenylpyrimidin-4-amine] it is 22.6 µM.
On to `COc1cccc(-c2cc(NCCCn3ccnc3)nc(-c3ccccc3)n2)c1` [Example 12, N-(3-(1H-imidazol-1-yl)propyl)-6-(3-methoxyphenyl)-2-phenylpyrimidin-4-amine], for which half-maximal inhibition (IC50) was put at 9.37 µM and the Ki was 3.75 µM.
The compound `c1ccc(-c2nc(NCCCn3ccnc3)cc(-c3ccoc3)n2)cc1` [Example 13, N-(3-(1H-imidazol-1-yl)propyl)-6-(furan-3-yl)-2-phenylpyrimidin-4-amine] returned an IC50 of 40.3 µM and a Ki of 14.9 µM.
As to `c1ccc(-c2nc(NCCCn3ccnc3)cc(C34CC5CC(CC(C5)C3)C4)n2)cc1` [Example 14, N-(3-(1H-imidazol-1-yl)propyl)-6-(adamant-1-yl)-2-phenylpyrimidin-4-amine], the IC50 stood at 116 µM.
In the case of `c1cc(-c2nc(NCCCn3ccnc3)cc(-c3ccoc3)n2)ccn1` [Example 17, N-(3-(1H-imidazol-1-yl)propyl)-6-(furan-3-yl)-2-(pyridin-4-yl)pyrimidin-4-amine], the IC50 was determined as 27.3 µM and affinity was put at a Ki of 3.7 µM.
For `FC(F)(F)c1cc(NCCCn2ccnc2)nc(-c2ccncc2)n1` [Example 18, N-(3-(1H-imidazol-1-yl)propyl)-6-(trifluoromethyl)-2-(pyridin-4-yl)pyrimidin-4-amine], in that order: 36.8 µM and 4.19 µM.
Consider `COc1cccc(-c2cc(NCCCn3ccnc3)nc(C)n2)c1` [Example 19, N-(3-(1H-imidazol-1-yl)propyl)-6-(3-methoxyphenyl)-2-methylpyrimidin-4-amine], for which the IC50 turned out to be 20.9 µM and the affinity, expressed as Ki, was 2.7 µM.
In turn, `COc1cc(-c2cc(NCCCn3ccnc3)nc(C)n2)cc(OC)c1OC` [Example 20, N-(3-(1H-imidazol-1-yl)propyl)-6-(3,4,5-trimethoxy-phenyl)-2-methyl-pyrimidin-4-amine] gave an IC50 of 6.43 µM and a Ki of 0.72 µM.
For `COc1ccc(-c2cc(NCCCn3ccnc3)nc(C)n2)cc1` [Example 21, N-(3-(1H-imidazol-1-yl)propyl)-6-(4-methoxyphenyl)-2-methylpyrimidin-4-amine], in that order: 18.5 µM and 2.26 µM.
Compound `COc1ccccc1-c1cc(NCCCn2ccnc2)nc(C)n1` [Example 22, N-(3-(1H-imidazol-1-yl)propyl)-6-(2-methoxyphenyl)-2-methylpyrimidin-4-amine] yielded an IC50 of 19.3 µM and a Ki of 2.16 µM.
Regarding `O=[N+]([O-])c1ccc(-c2cc(NCCCn3ccnc3)nc(-c3ccncc3)n2)cc1` [Example 24, N-(3-(1H-imidazol-1-yl)propyl)-6-(4-nitrophenyl)-2-(pyridin-4-yl)pyrimidin-4-amine], it took 16.9 µM to reach half-maximal inhibition (IC50).
`Cc1ccc(-c2cc(NCCCn3ccnc3)nc(-c3ccncc3)n2)cc1` [Example 25, N-(3-(1H-imidazol-1-yl)propyl)-2-(pyridin-4-yl)-6-p-tolylpyrimidin-4-amine] registered an IC50 of 30.6 µM.
With `COc1ccccc1-c1cc(NCCCn2ccnc2)nc(-c2ccncc2)n1` [Example 26, N-(3-(1H-imidazol-1-yl)propyl)-6-(2-methoxyphenyl)-2-(pyridin-4-yl)pyrimidin-4-amine], the IC50 was found to be 8.18 µM and affinity was put at a Ki of 0.83 µM.
`COc1cccc(-c2cc(NCCCn3ccnc3)nc(-c3ccncc3)n2)c1` [Example 27, N-(3-(1H-imidazol-1-yl)propyl)-6-(3-methoxyphenyl)-2-(pyridin-4-yl)pyrimidin-4-amine] came in with an IC50 of 19 µM.
`COc1ccccc1-c1cc(NCCCn2cncc2C)nc(-c2ccncc2)n1` [Example 28, 6-(2-Methoxyphenyl)-N-(3-(5-methyl-1H-imidazol-1-yl)propyl)-2-(pyridin-4-yl)pyrimidin-4-amine] registered an IC50 of 1.09 µM and a Ki of 0.281 µM.
Compound `c1ccc(-c2nc(Nc3ccc4nc[nH]c4c3)cc(-c3ccc4ncccc4c3)n2)cc1` [Example 30, N-(2-phenyl-6-(quinolin-6-yl)pyrimidin-4-yl)-3H-benzo[d]imidazol-5-amine] yielded an IC50 of 100 µM.
`Cc1nc(NCCCn2ccnc2)cc(-c2ccc3ncccc3c2)n1` [Example 31, N-(3-(1H-imidazol-1-yl)propyl)-2-methyl-6-(quinolin-6-yl)pyrimidin-4-amine] had an IC50 of 31.4 µM and a Ki of 3.56 µM.
Compound `c1ccc(C2CC2c2cc(NCCCn3ccnc3)nc(-c3ccncc3)n2)cc1` (stereo not drawn) [Example 33, N-(3-(1H-imidazol-1-yl)propyl)-6-(2-phenylcyclopropyl)-2-(pyridin-4-yl)-pyrimidin-4-amine] returned an IC50 of 26.5 µM and a Ki of 3.06 µM.
Compound `Cc1nc(NCCCn2ccnc2)cc(C2Cc3ccccc3C2)n1` [Example 34, N-(3-(1H-imidazol-1-yl)propyl)-6-(2,3-dihydro-1H-inden-2-yl)-2-methyl-pyrimidin-4-amine] came in with an IC50 of 48.3 µM and an inhibition constant Ki of 6.82 µM.
For `c1ccc2c(c1)CC(c1cc(NCCCn3ccnc3)nc(-c3ccncc3)n1)C2` [Example 36, N-(3-(1H-imidazol-1-yl)propyl)-6-(2,3-dihydro-1H-inden-2-yl)-2-(pyridin-4-yl)-pyrimidin-4-amine], in that order: 26.8 µM and 3.52 µM.

(Values after patent publication US8188094B2, “Inhibitors of glutaminyl cyclase” (Probiodrug AG, priority 2007, dated 2012).)
